Source: US20110224079A1, “SPIROHETEROCYCLIC N-OXYAMIDES AS PESTICIDES” (SYNGENTA CROP PROTECTION LLC, priority 2008, published 2011)

Assays:
[1] = system: Myzus persicae (green peach aphid); experiment: Example B1: activity against Myzus persicae, sprayed sunflower leaf discs (feeding/residual contact, preventive); conditions: foliar, 144 h, read-out: activity (mortality)
[2] = system: Myzus persicae (green peach aphid); experiment: Example B17: activity against Myzus persicae on sprayed pepper plants (feeding/residual contact); format: in vivo; conditions: 144 h, infested pepper plants sprayed, 6 days
[3] = system: Myzus persicae (green peach aphid); experiment: Example B2: activity against Myzus persicae, pea seedling roots in test solution (systemic/feeding, curative); conditions: 144 h, read-out: activity (mortality)

CCOC(=O)OC1=C(c2c(C)cc(-c3ccc(Cl)cc3)cc2C)C(=O)N(OCOC)C12CCN(OC)CC2 [P1.20]
mortality at 400 ppm [1]: > 80%

CON1CCC2(CC1)C(O)=C(c1cc(C)c(C)cc1C)C(=O)N2OC [P2.36]
mortality at 400 ppm [1]: > 80%
mortality at 200 ppm [2]: ≥ 80%

CCOC(=O)OC1=C(c2c(C)cc(C)cc2Br)C(=O)N(OC)C12CCN(OC)CC2 [P1.66]
mortality at 400 ppm [1]: > 80%
mortality at 400 ppm [3]: > 80%

CCOC(=O)OC1=C(c2c(C)cc(C)cc2C)C(=O)N(OC2COC2)C12CCN(OC)CC2 [P1.79]
mortality at 400 ppm [3]: > 80%
mortality at 200 ppm [2]: ≥ 80%

CON1CCC2(CC1)C(O)=C(c1cc(C)c(C)cc1Cl)C(=O)N2OC [P2.43]
mortality at 200 ppm [2]: ≥ 80%

CCOC(=O)OC1=C(c2c(F)ccc(C)c2Cl)C(=O)N(OC2CCCO2)C12CCN(OC)CC2 (centres unmarked) [P1.102]
mortality at 400 ppm [3]: > 80%

COCON1C(=O)C(c2ccc(C)cc2C)=C(O)C12CCN(OC)CC2 [P2.52]
mortality at 400 ppm [1]: > 80%
mortality at 400 ppm [3]: > 80%

COCON1C(=O)C(c2c(C)cc(C)cc2Br)=C(O)C12CCN(OC)CC2 [P2.72]
mortality at 400 ppm [1]: > 80%
mortality at 400 ppm [3]: > 80%

COCON1C(=O)C(c2cc(C)c(C)cc2C)=C(O)C12CCN(OC)CC2 [P2.38]
mortality at 400 ppm [1]: > 80%
mortality at 200 ppm [2]: ≥ 80%

CCOC(=O)OC1=C(c2cc(C)c(Cl)cc2C)C(=O)N(OC2CCCO2)C12CCN(OC)CC2 (centres unmarked) [P1.103]
mortality at 400 ppm [1]: > 80%

CCOC(=O)OC1=C(c2c(C)cc(C)cc2Br)C(=O)N(OCCOC)C12CCN(OC)CC2 [P1.67]
mortality at 400 ppm [1]: > 80%
mortality at 400 ppm [3]: > 80%

CCOC(=O)OC1=C(c2c(C)cc(Br)cc2C)C(=O)N(OCCOC)C12CCN(OC)CC2 [P1.89]
mortality at 400 ppm [1]: > 80%
mortality at 400 ppm [3]: > 80%
mortality at 200 ppm [2]: ≥ 80%

CCOC(=O)OC1=C(c2c(C)cc(C)cc2Br)C(=O)N(OCOC)C12CCN(OC)CC2 [P1.68]
mortality at 400 ppm [1]: > 80%
mortality at 400 ppm [3]: > 80%

CCOC(=O)OC1=C(c2cc(C)c(C)cc2C)C(=O)N(OC)C12CCN(OC)CC2 [P1.57]
mortality at 400 ppm [1]: > 80%
mortality at 400 ppm [3]: > 80%
mortality at 200 ppm [2]: ≥ 80%

COCCON1C(=O)C(c2c(F)ccc(C)c2Cl)=C(O)C12CCN(OC)CC2 [P2.59]
mortality at 400 ppm [3]: > 80%

CCOC(=O)OC1=C(c2cc(C)c(C)cc2Cl)C(=O)N(OCCOC)C12CCN(OC)CC2 [P1.35]
mortality at 400 ppm [1]: > 80%
mortality at 400 ppm [3]: > 80%

COCCON1C(=O)C(c2cc(C)c(C)cc2Cl)=C(O)C12CCN(OC)CC2 [P2.32]
mortality at 400 ppm [3]: > 80%

CCOC(=O)OC1=C(c2c(C)cc(C)cc2C)C(=O)N(OC2CCOC2)C12CCN(OC)CC2 (centres unmarked) [P1.108]
mortality at 400 ppm [1]: > 80%
mortality at 400 ppm [3]: > 80%

COCCON1C(=O)C(c2cc(C)c(Cl)cc2C)=C(O)C12CCN(OC)CC2 [P2.29]
mortality at 200 ppm [2]: ≥ 80%

COCON1C(=O)C(c2c(Cl)ccc(C)c2F)=C(O)C12CCN(OC)CC2 [P2.46]
mortality at 400 ppm [3]: > 80%

CON1CCC(ON2C(=O)C(c3c(C)cc(C)cc3C)=C(O)C23CCN(OC)CC3)CC1 [P2.95]
mortality at 400 ppm [3]: > 80%
mortality at 200 ppm [2]: ≥ 80%

CCOCON1C(=O)C(c2ccc(C)cc2C)=C(O)C12CCN(OC)CC2 [P2.61]
mortality at 400 ppm [1]: > 80%
mortality at 400 ppm [3]: > 80%

CCOC(=O)OC1=C(c2cc(C)c(Cl)cc2C)C(=O)N(OC)C12CCN(OC)CC2 [P1.34]
mortality at 400 ppm [1]: > 80%

CON1CCC2(CC1)C(O)=C(c1c(C)cc(C)cc1C)C(=O)N2OCCSC [P2.99]
mortality at 400 ppm [3]: > 80%
mortality at 200 ppm [2]: ≥ 80%

CCOC(=O)OC1=C(c2c(Cl)ccc(C)c2F)C(=O)N(OCOC)C12CCN(OC)CC2 [P1.42]
mortality at 400 ppm [3]: > 80%

CCOC(=O)OC1=C(c2c(Cl)ccc(C)c2F)C(=O)N(OC)C12CCN(OC)CC2 [P1.41]
mortality at 400 ppm [3]: > 80%

COCON1C(=O)C(c2c(C)ccc(Cl)c2C)=C(O)C12CCN(OC)CC2 [P2.71]
mortality at 400 ppm [3]: > 80%
mortality at 200 ppm [2]: ≥ 80%

CCOC(=O)OC1=C(c2cc(C)c(C)cc2C)C(=O)N(OCCOC)C12CCN(OC)CC2 [P1.36]
mortality at 400 ppm [1]: > 80%

CCOC(=O)OC1=C(c2cc(C)c(C)cc2Cl)C(=O)N(OC)C12CCN(OC)CC2 [P1.39]
mortality at 400 ppm [1]: > 80%

CON1CCC2(CC1)C(O)=C(c1c(C)cc(C)c(C)c1C)C(=O)N2OC [P2.49]
mortality at 400 ppm [3]: > 80%

CCOC(=O)OC1=C(c2cc(C)c(C)cc2Cl)C(=O)N(OCOC)C12CCN(OC)CC2 [P1.38]
mortality at 400 ppm [1]: > 80%
mortality at 200 ppm [2]: ≥ 80%

COCCON1C(=O)C(c2cc(C)c(C)cc2C)=C(O)C12CCN(OC)CC2 [P2.37]
mortality at 400 ppm [1]: > 80%

CCOC(=O)OC1=C(c2cc(C)c(Cl)cc2C)C(=O)N(OCCOC)C12CCN(OC)CC2 [P1.33]
mortality at 400 ppm [1]: > 80%

CON1CCC2(CC1)C(O)=C(c1cc(C)c(Cl)cc1C)C(=O)N2OC1CCCO1 (centres unmarked) [P2.93]
mortality at 400 ppm [1]: > 80%

COCON1C(=O)C(c2cc(Br)c(C)cc2C)=C(O)C12CCN(OC)CC2 [P2.74]
mortality at 400 ppm [1]: > 80%

COCCON1C(=O)C(c2cc(C)c(C)cc2Br)=C(O)C12CCN(OC)CC2 [P2.53]
mortality at 400 ppm [3]: > 80%

CCOC(=O)OC1=C(c2ccc(C)cc2C)C(=O)N(OCOC)C12CCN(OC)CC2 [P1.50]
mortality at 400 ppm [1]: > 80%
mortality at 400 ppm [3]: > 80%

CCOC(=O)OC1=C(c2c(C)ccc(Cl)c2C)C(=O)N(OCCOC)C12CCN(OC)CC2 [P1.65]
mortality at 400 ppm [3]: > 80%
mortality at 200 ppm [2]: ≥ 80%

CON1CCC2(CC1)C(O)=C(c1c(F)ccc(C)c1Cl)C(=O)N2OC1CCCO1 (centres unmarked) [P2.92]
mortality at 400 ppm [1]: > 80%
mortality at 400 ppm [3]: > 80%

COCCON1C(=O)C(c2c(C)cc(Br)cc2C)=C(O)C12CCN(OC)CC2 [P2.80]
mortality at 400 ppm [1]: > 80%
mortality at 400 ppm [3]: > 80%

COCCCON1C(=O)C(c2c(C)cc(C)cc2C)=C(O)C12CCN(OC)CC2 [P2.28]
mortality at 400 ppm [1]: > 80%
mortality at 400 ppm [3]: > 80%

CCOC(=O)OC1=C(c2cc(C)c(C)cc2Br)C(=O)N(OCOC)C12CCN(OC)CC2 [P1.52]
mortality at 400 ppm [3]: > 80%

CCOC(=O)OC1=C(c2c(C)cc(C)cc2C)C(=O)N(OC2CCCCC2)C12CCN(OC)CC2 [P1.30]
mortality at 400 ppm [1]: > 80%

CCOC(=O)OC1=C(c2c(C)cc(C)c(C)c2C)C(=O)N(OCCOC)C12CCN(OC)CC2 [P1.46]
mortality at 400 ppm [3]: > 80%

CON1CCC2(CC1)C(O)=C(c1c(C)cc(C)cc1C)C(=O)N2OC1CCOC1 (centres unmarked) [P2.98]
mortality at 400 ppm [1]: > 80%
mortality at 400 ppm [3]: > 80%

COCON1C(=O)C(c2cc(C)c(C)cc2Br)=C(O)C12CCN(OC)CC2 [P2.41]
mortality at 400 ppm [1]: > 80%
mortality at 400 ppm [3]: > 80%

CON1CCC2(CC1)C(O)=C(c1c(Cl)ccc(C)c1F)C(=O)N2OC1CCCO1 (centres unmarked) [P2.44]
mortality at 400 ppm [3]: > 80%

CCOC(=O)OC1=C(c2cc(C)c(C)cc2Cl)C(=O)N(OC2CCCO2)C12CCN(OC)CC2 (centres unmarked) [P1.64]
mortality at 400 ppm [3]: > 80%

CCOC(=O)OC1=C(c2c(C)ccc(Cl)c2C)C(=O)N(OC)C12CCN(OC)CC2 [P1.37]
mortality at 400 ppm [1]: > 80%
mortality at 200 ppm [2]: ≥ 80%

CON1CCC2(CC1)C(O)=C(c1c(C)cc(C)cc1C)C(=O)N2OCC1CCSCC1 [P2.82]
mortality at 200 ppm [2]: ≥ 80%

COCON1C(=O)C(c2cc(C)c(Cl)cc2C)=C(O)C12CCN(OC)CC2 [P2.27]
mortality at 400 ppm [3]: > 80%

CCOC(=O)OC1=C(c2cc(C)c(Cl)cc2C)C(=O)N(OCOC)C12CCN(OC)CC2 [P1.32]
mortality at 200 ppm [2]: ≥ 80%

CON1CCC2(CC1)C(O)=C(c1cc(C)c(Cl)cc1C)C(=O)N2OC [P2,31]
mortality at 200 ppm [2]: ≥ 80%
